Measurements published in PubChem BioAssay (NCI).
“And” between values parts separate entries of the source, which are not always exact repeats. Equal values may be shown once.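 Assay format: 96-well plates, 48-hour exposure. At the GI50, growth is halved. TGI is the concentration that stops growth completely.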

Columns and labels:
Test in all cases: growth of human tumour cells (NCI), 48 h
786-0 renal = test system: 786-0 renal
A498 renal = test system: A498 renal
A549 NSCLC = test system: A549 NSCLC
ACHN renal = test system: ACHN renal
BT-549 breast = test system: BT-549 breast
CAKI-1 renal = test system: CAKI-1 renal
CCRF-CEM leukemia = test system: CCRF-CEM leukemia
COLO 205 colon = test system: COLO 205 colon
DU-145 prostate = test system: DU-145 prostate
EKVX NSCLC = test system: EKVX NSCLC
HCT-116 colon = test system: HCT-116 colon
HCT-15 colon = test system: HCT-15 colon
HL-60(TB) leukemia = test system: HL-60(TB) leukemia
HOP-62 NSCLC = test system: HOP-62 NSCLC
HOP-92 NSCLC = test system: HOP-92 NSCLC
HS 578T breast = test system: HS 578T breast
HT29 colon = test system: HT29 colon
IGROV1 ovarian = test system: IGROV1 ovarian
K-562 leukemia = test system: K-562 leukemia
KM12 colon = test system: KM12 colon
LOX IMVI melanoma = test system: LOX IMVI melanoma
M14 melanoma = test system: M14 melanoma
MALME-3M melanoma = test system: MALME-3M melanoma
MCF7 breast = test system: MCF7 breast
MDA-MB-231 breast = test system: MDA-MB-231 breast
MDA-MB-435 = test system: MDA-MB-435
MOLT-4 leukemia = test system: MOLT-4 leukemia
NCI-H226 lung = test system: NCI-H226 lung
NCI-H23 lung = test system: NCI-H23 lung
NCI-H460 lung = test system: NCI-H460 lung
NCI-H522 lung = test system: NCI-H522 lung
NCI/ADR-RES ovarian = test system: NCI/ADR-RES ovarian
OVCAR-3 ovarian = test system: OVCAR-3 ovarian
OVCAR-4 ovarian = test system: OVCAR-4 ovarian
OVCAR-5 ovarian = test system: OVCAR-5 ovarian
OVCAR-8 ovarian = test system: OVCAR-8 ovarian
RPMI-8226 leukemia = test system: RPMI-8226 leukemia
RXF 393 renal = test system: RXF 393 renal
SF-268 CNS = test system: SF-268 CNS
SF-295 CNS = test system: SF-295 CNS
SF-539 CNS = test system: SF-539 CNS
SK-MEL-2 melanoma = test system: SK-MEL-2 melanoma
SK-MEL-28 melanoma = test system: SK-MEL-28 melanoma
SK-OV-3 ovarian = test system: SK-OV-3 ovarian
SN12C renal = test system: SN12C renal
SNB-19 CNS = test system: SNB-19 CNS
SNB-75 CNS = test system: SNB-75 CNS
SR leukemia = test system: SR leukemia
SW-620 colon = test system: SW-620 colon
T-47D breast = test system: T-47D breast
U251 CNS = test system: U251 CNS
UACC-257 melanoma = test system: UACC-257 melanoma
UACC-62 melanoma = test system: UACC-62 melanoma
UO-31 renal = test system: UO-31 renal

Nc1ccn([C@@H]2O[C@H](COP(=O)(O)O[C@@H]3C[C@H](n4cc(F)c(=O)[nH]c4=O)O[C@@H]3COP(=O)(O)O[C@@H]3C[C@H](n4cc(F)c(=O)[nH]c4=O)O[C@@H]3COP(=O)(O)O[C@@H]3C[C@H](n4cc(F)c(=O)[nH]c4=O)O[C@@H]3COP(=O)(O)O[C@@H]3C[C@H](n4cc(F)c(=O)[nH]c4=O)O[C@@H]3COP(=O)(O)O[C@@H]3C[C@H](n4cc(F)c(=O)[nH]c4=O)O[C@@H]3COP(=O)(O)O[C@@H]3C[C@H](n4cc(F)c(=O)[nH]c4=O)O[C@@H]3COP(=O)(O)O[C@@H]3C[C@H](n4cc(F)c(=O)[nH]c4=O)O[C@@H]3COP(=O)(O)O[C@@H]3C[C@H](n4cc(F)c(=O)[nH]c4=O)O[C@@H]3COP(=O)(O)O[C@@H]3C[C@H](n4cc(F)c(=O)[nH]c4=O)O[C@@H]3COP(=O)(O)O[C@@H]3C[C@H](n4cc(F)c(=O)[nH]c4=O)O[C@@H]3COP(=O)(O)OCCOCCOCCOCCOCCOCCO)[C@H](O)C2O)c(=O)n1 (stereo not given in full)
GI50 (786-0 renal): 0.00777 µM and 0.0131 µM
TGI (786-0 renal): 21.1 µM and > 100 µM
GI50 (A498 renal): 0.0204 µM and 0.0631 µM
TGI (A498 renal): 21.1 µM and > 100 µM
GI50 (A549 NSCLC): 0.00284 µM
TGI (A549 NSCLC): 21.1 µM and > 100 µM
GI50 (ACHN renal): 0.00745 µM
TGI (ACHN renal): 21.1 µM and > 100 µM
GI50 (BT-549 breast): 0.674 µM and 0.568 µM
TGI (BT-549 breast): 21.1 µM and > 100 µM
GI50 (CAKI-1 renal): 0.00832 µM
TGI (CAKI-1 renal): 21.1 µM and > 100 µM
GI50 (CCRF-CEM leukemia): 0.0101 µM and 0.0175 µM
TGI (CCRF-CEM leukemia): 21.1 µM and > 100 µM
GI50 (COLO 205 colon): 0.00973 µM
TGI (COLO 205 colon): 21.1 µM and > 100 µM
GI50 (DU-145 prostate): 0.0185 µM and 0.0254 µM
TGI (DU-145 prostate): 21.1 µM and > 100 µM
TGI (EKVX NSCLC): > 100 µM
GI50 (HCT-116 colon): 0.013 µM
TGI (HCT-116 colon): 21.1 µM and > 100 µM
GI50 (HCT-15 colon): 0.697 µM and 0.179 µM
TGI (HCT-15 colon): 21.1 µM and > 100 µM
TGI (HL-60(TB) leukemia): 21.1 µM and > 100 µM
GI50 (HOP-62 NSCLC): 0.00841 µM
TGI (HOP-62 NSCLC): 21.1 µM and > 100 µM
GI50 (HOP-92 NSCLC): 3.86 µM and 14.1 µM
TGI (HOP-92 NSCLC): 21.1 µM and > 100 µM
GI50 (HS 578T breast): > 100 µM
TGI (HS 578T breast): > 100 µM
GI50 (HT29 colon): 0.0171 µM
TGI (HT29 colon): 21.1 µM and > 100 µM
GI50 (IGROV1 ovarian): 1.63 µM and 1.45 µM
TGI (IGROV1 ovarian): 21.1 µM and > 100 µM
GI50 (K-562 leukemia): 0.489 µM and 0.0858 µM
TGI (K-562 leukemia): 21.1 µM and > 100 µM
GI50 (KM12 colon): 0.178 µM
TGI (KM12 colon): 21.1 µM
GI50 (LOX IMVI melanoma): 0.0054 µM
TGI (LOX IMVI melanoma): 21.1 µM and > 100 µM
GI50 (M14 melanoma): 0.00911 µM and 0.0126 µM
TGI (M14 melanoma): 2.56 µM and 4.9 µM
GI50 (MALME-3M melanoma): 2.37 µM and 11.8 µM
TGI (MALME-3M melanoma): 21.1 µM and > 100 µM
GI50 (MCF7 breast): 0.00211 µM
TGI (MCF7 breast): 21.1 µM and > 100 µM
TGI (MDA-MB-231 breast): 21.1 µM and > 100 µM
GI50 (MDA-MB-435): 1.28 µM and 0.233 µM
TGI (MDA-MB-435): 21.1 µM and > 100 µM
GI50 (MOLT-4 leukemia): 0.0246 µM and 0.0443 µM
TGI (MOLT-4 leukemia): 21.1 µM and > 100 µM
GI50 (NCI-H226 lung): 9.21 µM and 24.6 µM
TGI (NCI-H226 lung): 21.1 µM and > 100 µM
GI50 (NCI-H23 lung): 0.0255 µM and 0.0445 µM
TGI (NCI-H23 lung): 21.1 µM and > 100 µM
GI50 (NCI-H460 lung): 0.00211 µM
TGI (NCI-H460 lung): 21.1 µM and > 100 µM
TGI (NCI-H522 lung): 21.1 µM and > 100 µM
GI50 (NCI/ADR-RES ovarian): 0.0146 µM and 0.0121 µM
TGI (NCI/ADR-RES ovarian): 21.1 µM and > 100 µM
GI50 (OVCAR-3 ovarian): > 100 µM
TGI (OVCAR-3 ovarian): > 100 µM
GI50 (OVCAR-4 ovarian): > 21.1 µM and 89.5 µM
TGI (OVCAR-4 ovarian): > 100 µM
GI50 (OVCAR-5 ovarian): > 100 µM
TGI (OVCAR-5 ovarian): > 100 µM
GI50 (OVCAR-8 ovarian): 0.0132 µM
TGI (OVCAR-8 ovarian): 21.1 µM and > 100 µM
GI50 (RPMI-8226 leukemia): 0.332 µM and 1.71 µM
TGI (RPMI-8226 leukemia): 21.1 µM and > 100 µM
GI50 (RXF 393 renal): 0.846 µM and 0.684 µM
TGI (RXF 393 renal): 21.1 µM and 70.4 µM
GI50 (SF-268 CNS): 0.00514 µM
TGI (SF-268 CNS): 21.1 µM and > 100 µM
GI50 (SF-295 CNS): 0.00328 µM
TGI (SF-295 CNS): 21.1 µM and > 100 µM
GI50 (SF-539 CNS): 0.00565 µM
TGI (SF-539 CNS): 21.1 µM and > 100 µM
TGI (SK-MEL-2 melanoma): > 100 µM
TGI (SK-MEL-28 melanoma): 21.1 µM and > 100 µM
GI50 (SK-OV-3 ovarian): 0.011 µM and 0.0185 µM
TGI (SK-OV-3 ovarian): 21.1 µM and > 100 µM
GI50 (SN12C renal): 0.0124 µM
TGI (SN12C renal): 21.1 µM
GI50 (SNB-19 CNS): 0.0721 µM and 0.0219 µM
TGI (SNB-19 CNS): 21.1 µM and > 100 µM
GI50 (SNB-75 CNS): 4.33 µM and 10.3 µM
TGI (SNB-75 CNS): 21.1 µM and > 100 µM
GI50 (SR leukemia): 0.621 µM
TGI (SR leukemia): 21.1 µM and > 100 µM
GI50 (SW-620 colon): 4.23 µM and 2.6 µM
TGI (SW-620 colon): 21.1 µM and > 100 µM
TGI (T-47D breast): 21.1 µM and > 100 µM
GI50 (U251 CNS): 0.0101 µM
TGI (U251 CNS): 21.1 µM and > 100 µM
GI50 (UACC-257 melanoma): 0.11 µM and 0.062 µM
TGI (UACC-257 melanoma): 21.1 µM and > 100 µM
GI50 (UACC-62 melanoma): 0.00557 µM and 0.0279 µM
GI50 (UO-31 renal): 0.00659 µM
TGI (UO-31 renal): 6.57 µM and 7.3 µM
